Values of other authors as cited in paper PMC7395068, “The evolution of strategies to minimise the risk of human drug-induced liver injury (DILI) in drug discovery and development” (Archives of Toxicology, 2020).
Like-named read-outs stand apart in the source and are kept apart here.

Experiments:
[1] = test system: HepG2 cells, primary human hepatocytes; settings: cited from earlier work
HepG2 cells [2] = settings: In vitro Assay; ref O'Brien 2006; cited from earlier work
HepG2 cells [3] = settings: In vitro Assay; ref Persson 2013; cited from earlier work
[4] = test system: THLE-Null and THLE-3A4 cells; settings: In vitro Assay; ref Gustafsson 2014; cited from earlier work
[5] = cited from earlier work
[6] = cited from earlier work; remark: listed apart in the source
[7] = test system: primary human hepatocytes, NIH3T3 fibroblasts, BSEP, CYP3A4; settings: In vitro Assay; ref Schadt 2015; cited from earlier work
[8] = test system: isolated mouse liver mitochondria; settings: In vitro Assay; ref Porceddu 2012; cited from earlier work
[9] = test system: THLE or HepG2 cells, isolated mitochondria, BSEP; settings: cited from earlier work
rBsep = settings: In vitro Assay; ref Dawson 2012; cited from earlier work
human hepatocytes = settings: In vitro Assay; ref Xu 2008; cited from earlier work
[10] = In vitro Assay, ref Garside 2014
[11] = assignment in Garside 2014, ref Garside 2014

SMILES: c1ccc(CN(CC2=NCCN2)c2ccccc2)cc1 [antazoline]
- Cluster 1-6 +VE Assay [1, 10]: -VE

SMILES: Cc1nnc(NS(=O)(=O)c2ccc(N)cc2)s1 [sulfamethizole]
- Cluster 1-6 +VE Assay [1, 10]: -VE

SMILES: NS(=O)(=O)c1cc(C(=O)O)c(NCc2ccco2)cc1Cl [furosemide, reference compound]
- Structural based (HCI) (HepG2 cells [2]): -VE
- Cluser analysis (HepG2 cells [3]): -VE
- Structural based (HCI) (HepG2 cells [3]): -VE
- THLE-Null [4]: -VE

SMILES: CCCCC[C@H](O)/C=C/[C@H]1[C@H](O)CC(=O)[C@@H]1C/C=C\CCCC(=O)O [dinoprostone]
- In vivo DILI ([5]; ref Garside 2014): -VE
- Cluster 1-6 +VE Assay [1, 10]: -VE

SMILES: CC[C@@H](C(N)=O)N1CCCC1=O [levetiracetam]
- DILI +VE (5-8), DILI -VE (-4) ([6]; ref Chen 2016): +VE
- DILI severity category ([6]; ref Chen 2016): vLess-DILI-Concern
- In vivo DILI ([5]; ref Garside 2014): +VE
- Cluster 1-6 +VE Assay [1, 10]: +VE

SMILES: O=c1[nH]cc(F)c(=O)[nH]1 [fluorouracil]
- DILI +VE (5-8), DILI -VE (-4) ([6]; ref Chen 2016): +VE
- DILI severity category ([6]; ref Chen 2016): vLess-DILI-Concern
- In vivo DILI ([5]; ref Garside 2014): +VE
- Cluster 1-6 +VE Assay [1, 10]: +VE

SMILES: CCCCN(CCCC)CCCOC(=O)c1ccc(N)cc1 [butacaine]
- In vivo DILI ([5]; ref Garside 2014): -VE
- Cluster 1-6 +VE Assay [1, 10]: +VE

SMILES: CC(Oc1c(Cl)cccc1Cl)C1=NCCN1 (stereo not drawn) [lofexidine]
- In vivo DILI [5, 11]: -VE
- Cluster 1-6 +VE Assay, In vitro Assay ([1]; ref Garside 2014): -VE

SMILES: Cc1ccc(Nc2c(F)cccc2Cl)c(CC(=O)O)c1 [lumiracoxib]
- Cellular toxicity (3T3 cells) [7]: -VE
- Combined Assay [7]: +VE
- GSH adduct HML [7]: +VE
- Hepatocyte cellular toxicity [7]: -VE
- MitoTox 3T3 [7]: -VE
- TDI CYP3A4 [7]: -VE
- hBSEP inhibition [7]: -VE
- THLE-Null [4]: +VE
- in vitro data EC2<=1x Cmax [8]: +VE

SMILES: CO[C@@]1(NC(=O)C2SC(=C(C(N)=O)C(=O)O)S2)C(=O)N2C(C(=O)O)=C(CSc3nnnn3C)CS[C@@H]21 (stereo partly drawn) [cefotetan]
- DILI +VE (5-8), DILI -VE (-4) ([6]; ref Chen 2016): -VE
- DILI severity category ([6]; ref Chen 2016): Ambiguous DILI-concern
- In vivo DILI ([5]; ref Garside 2014): -VE
- Cluster 1-6 +VE Assay [1, 10]: -VE

SMILES: O=C(O)c1cc(-c2ccccc2)nc2ccccc12 [cinchophen]
- DILI +VE (5-8), DILI -VE (-4) ([6]; in vivo): +VE
- DILI severity category ([6]; in vivo): vMost-DILI-Concern
- Partition Hybrid HRM Score [9]: +VE
- In vivo DILI ([5]; in vivo): +VE
- THLE-Null [4]: -VE
- Inhibition of rBsep cutoff<1& cmax u>.2 (rBsep): -VE
- Inhibition of rBsep cutoff<3 (rBsep): +VE

SMILES: CC(C)(Oc1ccc(C2CC2(Cl)Cl)cc1)C(=O)O (stereo not drawn) [ciprofibrate]
- Cellular toxicity (3T3 cells) [7]: -VE
- Combined Assay [7]: -VE
- GSH adduct HML [7]: -VE
- Hepatocyte cellular toxicity [7]: -VE
- MitoTox 3T3 [7]: -VE
- TDI CYP3A4 [7]: -VE
- hBSEP inhibition [7]: -VE
- Structural based (HCI) (HepG2 cells [2]): +VE
- Structural based (HCI) (human hepatocytes): +VE
- In vivo DILI ([5]; ref Dawson 2012): +VE
- In vivo DILI ([5]; ref Gustafsson 2014): +VE
- In vivo DILI ([5]; ref O'Brien 2006): +VE
- In vivo DILI ([5]; ref Schadt 2015): -VE
- In vivo DILI ([5]; ref Xu 2008): +VE
- THLE-Null [4]: -VE
- THLE-Null/3A4 [4]: -VE
- Inhibition of rBsep cutoff<1& cmax u>.2 (rBsep): -VE
- Inhibition of rBsep cutoff<3 (rBsep): +VE

SMILES: OC(CCN1CCCCC1)(c1ccccc1)C1CC2C=CC1C2 (stereo not drawn) [biperiden]
- Cluster 1-6 +VE Assay [1, 10]: -VE

SMILES: O=C(O)c1ccccc1O [salicylic acid]
- THLE-Null [4]: -VE
- in vitro data EC2<=1x Cmax [8]: +VE
- Inhibition of rBsep cutoff<1& cmax u>.2 (rBsep): -VE
- Inhibition of rBsep cutoff<3 (rBsep): -VE

SMILES: C[C@H](N[C@@H](CCc1ccccc1)C(=O)O)C(=O)N1CCC[C@H]1C(=O)O [enalaprilat]
- DILI +VE (5-8), DILI -VE (-4) ([6]; ref Chen 2016): -VE
- DILI severity category ([6]; ref Chen 2016): Ambiguous DILI-concern
- In vivo DILI ([5]; in vivo): +VE
- Cluster 1-6 +VE Assay [1]: -VE

SMILES: CC(=O)[C@H]1CC[C@H]2[C@@H]3C[C@H](C)C4=CC(=O)CC[C@]4(C)[C@H]3[C@@H](O)C[C@]12C [medrysone]
- In vivo DILI [5, 11]: -VE
- Cluster 1-6 +VE Assay, In vitro Assay ([1]; ref Garside 2014): +VE

SMILES: COc1ccc(C(Cl)=C(c2ccc(OC)cc2)c2ccc(OC)cc2)cc1 [chlorotrianisene]
- In vivo DILI ([5]; ref Garside 2014): -VE
- Cluster 1-6 +VE Assay [1, 10]: -VE

SMILES: CCN1CCCC1CNC(=O)c1cc(S(N)(=O)=O)ccc1OC (stereo not drawn) [sulpiride]
- In vivo DILI ([5]; in vivo): +VE
- THLE-Null [4]: -VE
- Inhibition of rBsep cutoff<1& cmax u>.2 (rBsep): -VE
- Inhibition of rBsep cutoff<3 (rBsep): -VE
